According to PubChem BioAssay (NCI):
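Step 1: Grow cells in 96-well plates. Step 2: Expose to compound for 48 hours at 5 concentrations. Step 3: Interpolate endpoints linearly; if unreached, use highest concentration. The concentration for 50% growth inhibition is given as GI50. TGI marks complete inhibition of growth.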 Where a SMILES comes first, the peptide text is derived from it. [ ]: non-standard residue; d: D form. ξ: configuration not given here. ξThz(5,5-Me2) = CC1(C)SCNC1C(=O)O

Experiments:
Experiment in all cases: inhibition of tumour cell growth, NCI panel, 48 h
[1] = tested on: 786-0 renal
[2] = tested on: A498 renal
[3] = tested on: A549 NSCLC
[4] = tested on: ACHN renal
[5] = tested on: BT-549 breast
[6] = tested on: CAKI-1 renal
[7] = tested on: COLO 205 colon
[8] = tested on: DU-145 prostate
[9] = tested on: EKVX NSCLC
[10] = tested on: HCC-2998 colon
[11] = tested on: HCT-116 colon
[12] = tested on: HCT-15 colon
[13] = tested on: HL-60(TB) leukemia
[14] = tested on: HOP-62 NSCLC
[15] = tested on: HOP-92 NSCLC
[16] = tested on: HT29 colon
[17] = tested on: IGROV1 ovarian
[18] = tested on: KM12 colon
[19] = tested on: LOX IMVI melanoma
[20] = tested on: M14 melanoma
[21] = tested on: MALME-3M melanoma
[22] = tested on: MCF7 breast
[23] = tested on: MDA-MB-231 breast
[24] = tested on: MDA-MB-435
[25] = tested on: NCI-H226 lung
[26] = tested on: NCI-H23 lung
[27] = tested on: NCI-H460 lung
[28] = tested on: NCI-H522 lung
[29] = tested on: NCI/ADR-RES ovarian
[30] = tested on: OVCAR-3 ovarian
[31] = tested on: OVCAR-4 ovarian
[32] = tested on: OVCAR-5 ovarian
[33] = tested on: OVCAR-8 ovarian
[34] = tested on: PC-3 prostate
[35] = tested on: RPMI-8226 leukemia
[36] = tested on: SF-268 CNS
[37] = tested on: SF-295 CNS
[38] = tested on: SF-539 CNS
[39] = tested on: SK-MEL-28 melanoma
[40] = tested on: SK-MEL-5 melanoma
[41] = tested on: SK-OV-3 ovarian
[42] = tested on: SN12C renal
[43] = tested on: SNB-19 CNS
[44] = tested on: SNB-75 CNS
[45] = tested on: SW-620 colon
[46] = tested on: T-47D breast
[47] = tested on: TK-10 renal
[48] = tested on: U251 CNS
[49] = tested on: UACC-257 melanoma
[50] = tested on: UACC-62 melanoma
[51] = tested on: UO-31 renal
[52] = tested on: CCRF-CEM leukemia
[53] = tested on: K-562 leukemia
[54] = tested on: MOLT-4 leukemia
[55] = tested on: RXF 393 renal
[56] = tested on: SK-MEL-2 melanoma

## COc1cc(C=C2c3ccccc3C(=O)c3ccccc32)ccc1OCCCCOc1cc2c(cc1OC)C(=O)N1CCCC1C=N2 (stereo not drawn)
[1]
  GI50: 448 nM
  TGI: 1110 nM
[2]
  GI50: 454 nM
  TGI: 1.61 µM
[3]
  GI50: 785 nM
  TGI: 3.22 µM
[4]
  GI50: 525 nM
  TGI: 1.69 µM
[5]
  GI50: 91.5 nM
  TGI: 542 nM
[6]
  GI50: 314 nM
  TGI: 1.02 µM
[7]
  GI50: 469 nM
  TGI: 1670 nM
[8]
  GI50: 208 nM
  TGI: 0.479 µM
[9]
  GI50: 1140 nM
  TGI: 3.17 µM
[10]
  GI50: 342 nM
  TGI: 0.816 µM
[11]
  GI50: 174 nM
  TGI: 0.409 µM
[12]
  GI50: 377 nM
  TGI: 1500 nM
[13]
  GI50: 142 nM
  TGI: 389 nM
[14]
  GI50: 579 nM
  TGI: 1310 nM
[15]
  GI50: 244 nM
  TGI: 1050 nM
[16]
  GI50: 278 nM
  TGI: 1460 nM
[17]
  GI50: 321 nM
  TGI: 804 nM
[18]
  GI50: 227 nM
  TGI: 608 nM
[19]
  GI50: 279 nM
  TGI: 0.89 µM
[20]
  GI50: 440 nM
  TGI: 1470 nM
[21]
  GI50: 399 nM
  TGI: 1.59 µM
[22]
  GI50: 304 nM
  TGI: 1640 nM
[23]
  GI50: 603 nM
  TGI: 11.8 µM
[24]
  GI50: 227 nM
  TGI: 601 nM
[25]
  GI50: 1260 nM
  TGI: 3.13 µM
[26]
  GI50: 337 nM
  TGI: 1.49 µM
[27]
  GI50: 703 nM
  TGI: 2.35 µM
[28]
  GI50: 612 nM
  TGI: 9.95 µM
[29]
  GI50: 1620 nM
  TGI: 8.83 µM
[30]
  GI50: 200 nM
  TGI: 458 nM
[31]
  GI50: 456 nM
  TGI: 8.45 µM
[32]
  GI50: 581 nM
  TGI: 1.45 µM
[33]
  GI50: 310 nM
  TGI: 1.26 µM
[34]
  GI50: 274 nM
  TGI: 3.56 µM
[35]
  GI50: 101 nM
  TGI: 354 nM
[36]
  GI50: 242 nM
  TGI: 726 nM
[37]
  GI50: 765 nM
  TGI: 2.34 µM
[38]
  GI50: 352 nM
  TGI: 1390 nM
[39]
  GI50: 192 nM
  TGI: 0.43 µM
[40]
  GI50: 782 nM
  TGI: 2050 nM
[41]
  GI50: 1410 nM
  TGI: 3.89 µM
[42]
  GI50: 458 nM
  TGI: 1.88 µM
[43]
  GI50: 1020 nM
  TGI: 2560 nM
[44]
  GI50: 391 nM
  TGI: 1800 nM
[45]
  GI50: 214 nM
  TGI: 0.501 µM
[46]
  GI50: 356 nM
  TGI: 1.78 µM
[47]
  GI50: 302 nM
  TGI: 0.896 µM
[48]
  GI50: 249 nM
  TGI: 0.704 µM
[49]
  GI50: 1090 nM
  TGI: 2.55 µM
[50]
  GI50: 407 nM
  TGI: 1.47 µM
[51]
  GI50: 656 nM
  TGI: 2.09 µM

## COc1cc(OC)cc(-c2ccc(-c3ccc(C(=N)N)cc3)s2)c1
[8]
  GI50: 1770 nM
  TGI: 3.24 µM
[13]
  GI50: 1900 nM
  TGI: 3740 nM

## CSCC[C@H](NC(=O)[C@H](CC(C)C)NC(=O)[C@H](Cc1c[nH]cn1)NC(=O)CNC(=O)C1N(C(=O)[C@@H](C)NC(=O)[C@H](Cc2c[nH]c3ccccc23)NC(=O)[C@H](CCC(N)=O)NC(=O)[C@@H](N)CC(N)=O)CSC1(C)C)C(N)=O (stereo partly drawn) (H-NQW[dA][ξThz(5,5-Me2)]GHLM-NH2)
[15]
  TGI: > 25000 nM
[25]
  TGI: > 25 µM
[26]
  TGI: > 25 µM
[49]
  TGI: > 25 µM

## COc1cc(/C=C/c2cc(/C=C/c3ccc(O)c(OC)c3)n(C(=O)Cc3ccccc3)n2)ccc1O
[1]
  GI50: 916 nM
  TGI: 4530 nM
[2]
  GI50: 2410 nM
  TGI: 6.93 µM
[3]
  GI50: 2800 nM
  TGI: 16.6 µM
[4]
  GI50: 419 nM
  TGI: 29.2 µM
[5]
  GI50: 758 nM
  TGI: 3930 nM
[6]
  GI50: 730 nM
  TGI: 38.4 µM
[52]
  GI50: 333 nM
  TGI: > 100 µM
[8]
  GI50: 1480 nM
  TGI: 8.63 µM
[10]
  GI50: 2900 nM
  TGI: 11.3 µM
[11]
  GI50: 491 nM
  TGI: 6.76 µM
[12]
  GI50: 388 nM
  TGI: 3790 nM
[16]
  GI50: 1660 nM
  TGI: 4500 nM
[53]
  GI50: 434 nM
  TGI: > 100 µM
[18]
  GI50: 461 nM
  TGI: > 100000 nM
[19]
  GI50: 609 nM
  TGI: 9.02 µM
[20]
  GI50: 399 nM
  TGI: 2640 nM
[21]
  GI50: 644 nM
  TGI: 4.98 µM
[22]
  GI50: 333 nM
  TGI: 2520 nM
[23]
  GI50: 1450 nM
  TGI: 20.9 µM
[24]
  GI50: 218 nM
  TGI: 587 nM
[54]
  GI50: 464 nM
  TGI: > 100 µM
[25]
  GI50: 2670 nM
  TGI: 9.88 µM
[26]
  GI50: 1560 nM
  TGI: 6.59 µM
[27]
  GI50: 526 nM
  TGI: 10.4 µM
[28]
  GI50: 323 nM
  TGI: 1.49 µM
[29]
  GI50: 792 nM
  TGI: 10.9 µM
[30]
  GI50: 1120 nM
  TGI: 5270 nM
[31]
  GI50: 1110 nM
  TGI: 6.39 µM
[32]
  GI50: 2770 nM
  TGI: 80 µM
[33]
  GI50: 1850 nM
  TGI: 16.7 µM
[34]
  GI50: 915 nM
  TGI: 4.34 µM
[35]
  GI50: 411 nM
  TGI: 2240 nM
[55]
  GI50: 1140 nM
  TGI: 3.48 µM
[37]
  GI50: 2010 nM
  TGI: 6.48 µM
[38]
  GI50: 475 nM
  TGI: 3910 nM
[56]
  GI50: 516 nM
  TGI: 2510 nM
[39]
  GI50: 1210 nM
  TGI: 15.1 µM
[40]
  GI50: 532 nM
  TGI: 3170 nM
[41]
  GI50: 690 nM
  TGI: 2.64 µM
[42]
  GI50: 1530 nM
  TGI: 44.5 µM
[43]
  GI50: 2430 nM
  TGI: > 100000 nM
[44]
  GI50: 545 nM
  TGI: 3450 nM
[45]
  GI50: 684 nM
  TGI: 10.9 µM
[46]
  GI50: 1330 nM
  TGI: 5.17 µM
[47]
  GI50: 2580 nM
  TGI: 9.09 µM
[48]
  GI50: 1210 nM
  TGI: 11.2 µM
[49]
  GI50: 2680 nM
  TGI: 11.5 µM
[50]
  GI50: 883 nM
  TGI: 4.76 µM
[51]
  GI50: 466 nM
  TGI: 4.31 µM
